# Source: ChEMBL document CHEMBL1201862, “PubChem BioAssay data set” (2004)
#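 Cultured in 96-well plates, cells were exposed to test compound for 48 hours across five concentrations. Here, GI50 denotes the concentration required for 50% inhibition of growth.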 Activity calls are given as the source filed them. Rule as the data show it: active = GI50 up to about 1.1 µM and inactive = higher.
# Columns and labels:
# Assay in all cases: NCI-60 cell line screen, 48 h
# ACHN = tested on: ACHN
# KM12 = tested on: KM12
# A549 = tested on: A549
# UACC-257 = tested on: UACC-257
# SN12C = tested on: SN12C
# COLO 205 = tested on: COLO 205
# DMS-273 = tested on: DMS-273
# DMS-114 = tested on: DMS-114
# HCT-15 = tested on: HCT-15
# SNB-19 = tested on: SNB-19
# OVCAR-8 = tested on: OVCAR-8
# NCI-H23 = tested on: NCI-H23
# Malme-3M = tested on: Malme-3M
# RPMI-8226 = tested on: RPMI-8226
# CCRF-CEM = tested on: CCRF-CEM
# SK-MEL-5 = tested on: SK-MEL-5
# OVCAR-4 = tested on: OVCAR-4
# HCC 2998 = tested on: HCC 2998
# SF-268 = tested on: SF-268
# NCI-H226 = tested on: NCI-H226
# HOP-18 = tested on: HOP-18
# M14 = tested on: M14
# HOP-92 = tested on: HOP-92
# NCI-H460 = tested on: NCI-H460
# LXFL 529 = tested on: LXFL 529
# SK-MEL-2 = tested on: SK-MEL-2
# U-251 = tested on: U-251
# SW-620 = tested on: SW-620
# HOP-62 = tested on: HOP-62
# TK-10 = tested on: TK-10
# HCT-116 = tested on: HCT-116
# UACC-62 = tested on: UACC-62
# HL-60 = tested on: HL-60
# SF-539 = tested on: SF-539
# SK-MEL-28 = tested on: SK-MEL-28
# K562 = tested on: K562
# UO-31 = tested on: UO-31
# KM-20L2 = tested on: KM-20L2
# MOLT-4 = tested on: MOLT-4
# XF498 = tested on: XF498
# NCI-H522 = tested on: NCI-H522
# EKVX = tested on: EKVX
# HT-29 = tested on: HT-29
# SF-295 = tested on: SF-295
# 786-0 = tested on: 786-0
# SR = tested on: SR
# CAKI-1 = tested on: CAKI-1
# M19-MEL = tested on: M19-MEL
# OVCAR-3 = tested on: OVCAR-3
# SNB-75 = tested on: SNB-75
# IGROV-1 = tested on: IGROV-1
# LOX IMVI = tested on: LOX IMVI
# RXF 393 = tested on: RXF 393
# SNB-78 = tested on: SNB-78
# A498 = tested on: A498
# SK-OV-3 = tested on: SK-OV-3
# DLD-1 = tested on: DLD-1
# OVCAR-5 = tested on: OVCAR-5
compound,measurement,setting,value
CCCCCCC1CCC2CCCC(C)N12 (centres undefined),GI50,ACHN,68.1 µM (inactive)
same,GI50,KM12,30.6 µM (inactive)
same,GI50,A549,77.1 µM (inactive)
same,GI50,UACC-257,37.9 µM (inactive)
same,GI50,SN12C,95.9 µM (inactive)
same,GI50,COLO 205,16 µM (inactive)
same,GI50,DMS-273,27.4 µM (inactive)
same,GI50,DMS-114,37 µM (inactive)
same,GI50,HCT-15,32.8 µM
same,GI50,SNB-19,> 100 µM (inactive)
same,GI50,OVCAR-8,45.6 µM (inactive)
same,GI50,NCI-H23,34.4 µM (inactive)
same,GI50,Malme-3M,> 10 µM (inactive)
same,GI50,RPMI-8226,22.9 µM (inactive)
same,GI50,CCRF-CEM,19 µM (inactive)
same,GI50,SK-MEL-5,49.8 µM (inactive)
same,GI50,OVCAR-4,46.2 µM (inactive)
same,GI50,HCC 2998,22.6 µM (inactive)
same,GI50,SF-268,43.4 µM (inactive)
same,GI50,NCI-H226,> 100 µM (inactive)
same,GI50,HOP-18,29.2 µM (inactive)
same,GI50,M14,25.3 µM (inactive)
same,GI50,HOP-92,25.8 µM (inactive)
same,GI50,NCI-H460,23.7 µM (inactive)
same,GI50,LXFL 529,> 10 µM (inactive)
same,GI50,SK-MEL-2,28.2 µM (inactive)
same,GI50,U-251,10.5 µM (inactive)
same,GI50,SW-620,14.8 µM (inactive)
same,GI50,HOP-62,> 100 µM (inactive)
same,GI50,TK-10,39.2 µM (inactive)
same,GI50,HCT-116,51.1 µM (inactive)
same,GI50,UACC-62,> 100 µM (inactive)
same,GI50,HL-60,17.8 µM (inactive)
same,GI50,SF-539,76 µM (inactive)
same,GI50,SK-MEL-28,53.6 µM (inactive)
same,GI50,K562,13.8 µM (inactive)
same,GI50,UO-31,19.7 µM (inactive)
same,GI50,KM-20L2,25.2 µM (inactive)
same,GI50,MOLT-4,18.3 µM (inactive)
same,GI50,XF498,19.4 µM (inactive)
same,GI50,NCI-H522,22.9 µM (inactive)
same,GI50,EKVX,> 100 µM (inactive)
same,GI50,HT-29,> 10 µM (inactive)
same,GI50,SF-295,43.4 µM (inactive)
same,GI50,786-0,30.1 µM (inactive)
same,GI50,SR,23.2 µM (inactive)
same,GI50,CAKI-1,> 100 µM (inactive)
same,GI50,M19-MEL,27.7 µM (inactive)
same,GI50,OVCAR-3,> 100 µM (inactive)
same,GI50,SNB-75,39.8 µM (inactive)
Brc1ccc(-c2cc3c(cc2C2SCCS2)OCO3)cc1,GI50,ACHN,16.5 µM (inactive)
same,GI50,KM12,39.4 µM (inactive)
same,GI50,IGROV-1,37.2 µM (inactive)
same,GI50,A549,18.2 µM (inactive)
same,GI50,LOX IMVI,0.359 µM (active)
same,GI50,UACC-257,30 µM (inactive)
same,GI50,SN12C,29 µM (inactive)
same,GI50,COLO 205,27.3 µM (inactive)
same,GI50,DMS-273,35.6 µM (inactive)
same,GI50,DMS-114,23.2 µM (inactive)
same,GI50,HCT-15,29.7 µM
same,GI50,SNB-19,55.5 µM (inactive)
same,GI50,OVCAR-8,50.1 µM (inactive)
same,GI50,NCI-H23,39.2 µM (inactive)
same,GI50,Malme-3M,45.1 µM (inactive)
same,GI50,CCRF-CEM,19.3 µM (inactive)
same,GI50,SK-MEL-5,23.3 µM (inactive)
same,GI50,OVCAR-4,21.6 µM (inactive)
same,GI50,HCC 2998,29 µM (inactive)
same,GI50,SF-268,26.9 µM (inactive)
same,GI50,NCI-H226,8.17 µM (inactive)
same,GI50,HOP-18,49.4 µM (inactive)
same,GI50,M14,41.6 µM (inactive)
same,GI50,NCI-H460,29.6 µM (inactive)
same,GI50,LXFL 529,25.4 µM (inactive)
same,GI50,SK-MEL-2,28.8 µM (inactive)
same,GI50,U-251,29.7 µM (inactive)
same,GI50,SW-620,25.6 µM (inactive)
same,GI50,RXF 393,12.9 µM (inactive)
same,GI50,HOP-62,31.4 µM (inactive)
same,GI50,TK-10,31.5 µM (inactive)
same,GI50,HCT-116,30.1 µM (inactive)
same,GI50,HL-60,15.4 µM (inactive)
same,GI50,SF-539,11.5 µM (inactive)
same,GI50,SK-MEL-28,> 100 µM (inactive)
same,GI50,SNB-78,11.4 µM (inactive)
same,GI50,K562,15.2 µM (inactive)
same,GI50,UO-31,18.1 µM (inactive)
same,GI50,KM-20L2,26.7 µM (inactive)
same,GI50,MOLT-4,13.4 µM (inactive)
same,GI50,XF498,14.2 µM (inactive)
same,GI50,A498,19 µM (inactive)
same,GI50,SK-OV-3,21.3 µM (inactive)
same,GI50,NCI-H522,10.9 µM (inactive)
same,GI50,EKVX,10.7 µM (inactive)
same,GI50,DLD-1,31.5 µM (inactive)
same,GI50,HT-29,33.3 µM (inactive)
same,GI50,SF-295,28.2 µM (inactive)
same,GI50,786-0,26.9 µM (inactive)
same,GI50,OVCAR-5,16.6 µM (inactive)
same,GI50,SR,18.4 µM (inactive)
same,GI50,M19-MEL,41.7 µM (inactive)
same,GI50,OVCAR-3,16.6 µM (inactive)
same,GI50,SNB-75,1.25 µM (inactive)
